Source: US9221872B2, “Peptides and peptidomimetics in combination uses and treatments for cancer patient subpopulations” (priority 2013, dated 2015)
Where a SMILES comes first, the peptide text is derived from it. Where no end group is shown, it is not given here. [ ]: non-standard residue; d: D form. dPhe(F5) = N[C@H](Cc1c(F)c(F)c(F)c(F)c1F)C(=O)O; dBpa = N[C@H](Cc1ccc(C(=O)c2ccccc2)cc1)C(=O)O; dCha = N[C@H](CC1CCCCC1)C(=O)O

Tests used:
Jurkat cells [1] = assay: G2 checkpoint abrogation, bleomycin treated Jurkat cells, flow cytometry; format: cell-based, human; settings: for G2 checkpoint abrogating activity: bleomycin treated Jurkat cells
Description: Cell-Cycle Analysis The cell cycle status of the cells treated with bleomycin or adriamcin were analyzed by flow cytometry as described by Kawabe (1997) Nature 385:454-458. In brief, two million cells were re-suspended and incubated in 200 μl Krishan's solution (0.1% Sodium citrate, 50 μg/ml PI, 20 μg/ml RNase A and 0.5% NP-40) for 1 hr at 4° C. and analyzed by a flow cytometry, FACScan™ (Beckton Dickinson, Mountain View, Calif.) with the program CELLQuest™ (Beckton Dickinson).
Flow cytometry analysis of G2 checkpoint abrogation was performed using human leukemia derived Jurkat cell line. In brief, cultured cells were treated with various doses of peptide/peptidomimetic and 40 μg/ml bleomycine for 24 hr. The DNA of the cells was stained with propidium iodide and analyzed by flow cytometry.
(§1) The “Appearance of side effect when used alone” indicates the peptide/peptidomimetic dose that produced Jurkat cell cycle disturbance, i.e., the appearance of significant amounts of SubG1 cells (dead cells) or cells in which the DNA content of each varies more than usual. […] The “G2 abrogating dose” indicates the peptide/peptidomimetic dose with 40 μg/ml bleomycine that produced detectable G2 checkpoint abrogation activity following treatment for 24 hours. The “Appearance of side effect when used with colchicine” indicates the peptide/peptidomimetic dose with 5 μg/ml colchicine that produced Jurkat cell cycle disturbance following treatment for 24 hours.
(§2) A comparison between G2 checkpoint abrogating activity and non specific toxicity (M checkpoint abrogation) by CB501 was performed. In brief, Jurkat cells were treated with 40 μg/ml bleomycin or 0.5 μg/ml colchicine for G2 checkpoint abrogating activity and non specific toxicity, respectively. The DNA amount in each of the treated cells was analyzed by flow cytometry, as previously described.

HUVEC cells = assay: G2 checkpoint abrogation by CBP501 combined with cis-platin in various cell lines; format: cell-based, human; settings: cis-platin 3 μg/ml, 3 hr, then 45 hr
Description: The medium was aspirated, fresh medium without these compounds was added and the cells were incubated for an additional 45 hr. The cells including floating cells were harvested using trypsin-EDTA solution, incubated with Krishan's solution and analyzed for DNA content by flow cytometry as previously described.

MIAPaCa2 = assay: Sub-G1 (dead cell) analysis of MIAPaCa2 treated with bleomycin or adriamycin; format: cell-based, human; settings: bleomycine 10 μg/ml or adriamycin 1 μg/ml, 3 hours, then 21 hours
Description: The G2 checkpoint abrogating activity of various compounds at different doses on human pancreatic cancer derived cell line MIAPaCa2 treated with bleomycine (Bleo) or adriamycin (ADR) was studied. Briefly, cells were incubated with the compounds and bleomycine (10 μg/ml) or adriamycin (1 μg/ml) for 3 hours. The medium was changed and incubated for an additional 21 hours. Harvested cells were stained for DNA by propium iodide and analyzed with flow cytometry as previously described. The % of the sub-G1 cell population is indicated as dead cells in FIG. 3.

Jurkat cells [2] = assay: M phase checkpoint abrogation / non specific toxicity, colchicine treated Jurkat cells; format: cell-based
Description: Flow cytometry analysis of M phase checkpoint abrogation by the compounds was performed using human T cell leukemia Jurkat cell line treated with colchicine (5 μg/ml or 0.5 μg/ml) and various doses of peptide/peptidomimetics for 24 hr (FIG. 12). The DNA of the cells was stained and analyzed by flow cytometry as described above.
as §1, §2

HUVEC = assay: Growth of normal human umbilical endothelial cells; format: cell-based
Description: Similar studies were performed using normal human umbilical endothelial cells (HUVEC).

non-squamous NSCLC = assay: Phase II randomized study, cisplatin and pemetrexed with or without CBP501; format: in vivo, human; settings: for Hazard Ratio OS: Arm A vs Arm B
Description: Clinical Study Design: Open-label, multicenter, phase II randomized, two-arm, comparative study. The protocol evaluated full-dose cisplatin and pemetrexed with or without CBP501. […] Randomization was stratified according to baseline stage of disease (IIIb vs IV), presence of brain metastasis and whether or not patients were eligible for bevacizumab therapy.
A cycle was considered to be 3 weeks (21 days).
3. Cisplatin 75 mg/m^2 was administered as a 1-hour i.v. infusion immediately after the pemetrexed infusion.
Cox proportional hazards model was employed to estimate the hazard ratio (HR) for PFS between the 2 treatment arms. The model included the treatment arm as a factor as well as the randomization stratification factors. The following covariates were explored: age, gender, race (Caucasian/non-Caucasian), prior surgery/procedure (yes/no), prior radiotherapy (yes/no), x-ray interpretation (normal/abnormal), ECG interpretation (normal/abnormal), bone scan (normal/abnormal), and time from diagnosis. Any continuous variables such as age and time from diagnosis to study treatment could have been converted into categorical variables by specifying 2 or several classes of values if a better model fit would result. The exploratory variables were entered using a stepwise regression algorithm using the following criteria: a variable must be significant at the 0.25 level to be entered into the model and significant at 0.15 level to remain in the model. For the final model, the point estimate of the hazard ratios were provided along with 95% CIs.
Subgroup analyses were conducted for patients that had […] at screening. Additional subgroup analysis was performed with a software GraphPad Prism 5 with raw data on each patients analyzed.

[3] = system: CBP501-sensitive tumor cells; settings: cited from earlier work
[4] = system: MIAPaCa2 human pancreatic carcinoma; assay: MIAPaCa2 subcutaneous tumor in scid mice; format: in vivo, mouse
Description: To study in vivo efficacy of the compounds, MIAPaCa2 human pancreatic carcinoma cells were implanted subcutaneously in scid mice. The treatment was initiated when the size of the primary tumor became 0.1 cm3 (Day0) or larger, e.g., 7 or 8 mm in diameter. CDDP (3 mg/kg) and CBP 501 (10 or 40 mg/kg) were intra-peritoneally administered alone or in combination. Tumor sizes were measured using calipers three times a week, and volumes were calculated using the formula: weight(mg)=[width (mm)2×length (mm)]/2. Mean tumor sizes for each treatment group are plotted (n=4) against the days after the start of treatment (FIG. 10).

[5] = cited from earlier work
[6] = Mouse serum treatment analysis, residual CBP501 quantity by HPLC; format: in vitro ADME; settings: mouse serum (table title), 37 degree
[7] = system: MIAPaCa2 human pancreatic carcinoma cells; assay: Colony formation analysis of MIAPaCa2 cells; settings: CBP501 10 μM, cisplatin or oxaliplatin 1, 3 or 9 μg/ml, 3 hours, 10 days
Description: Briefly, cells were plated at 300 cells/well in 6 well plates, incubated overnight, and treated with the compounds for three hours. The medium was changed and cultured for an additional 10 days. Cells were subsequently fixed with 70% methanol, stained with 0.1% crystal violet and visualized.

M1 and M2 macrophages = assay: Phagocytic activity of M1 and M2 macrophages, fluorescent beads; format: cell-based, human
Description: Referring to FIG. 19, macrophages were obtained by stimulating human peripheral blood mononuclear cells by 0.32 uM of PMA and removing all suspension cells 48 hours of PMA stimulation. The cells were further incubated with 50 ng/ml IFN-gamma, 10 ng/ml LPS to obtain M1 phenotype, and 20 ng/ml IL-4 to obtain M2 macrophages. Both treatment was with or without CBP501. The phagocytic activity was monitored by using fluorescent labelled beads and flow cytometry.

Compound: (d-Arg)(d-Arg)(d-Arg)(d-Bpa)(d-Arg)(d-Trp)(d-Arg)(d-Phe-2,3,4,5,6-F)(d-Cha) ([dR][dR][dR][dBpa][dR][dW][dR][dPhe(F5)][dCha]) [CBP701]
- G2 checkpoint abrogating activity (Jurkat cells [1]): retain G2 checkpoint abrogating activity comparable to other peptides having significant G2 checkpoint abrogating activity

Compound: N=C(N)NCCC[C@H](NC(=O)CNC(=O)[C@@H](N)Cc1ccc(O)cc1)C(=O)N[C@@H](CCCCN)C(=O)N[C@@H](CCCCN)C(=O)N[C@@H](CCCNC(=N)N)C(=O)N[C@@H](CCCNC(=N)N)C(=O)N[C@@H](CCC(N)=O)C(=O)N[C@@H](CCCNC(=N)N)C(=O)N[C@@H](CCCNC(=N)N)C(=O)N[C@@H](CCCNC(=N)N)C(=O)N[C@@H](CC1CCCCC1)C(=O)N[C@@H](Cc1c(F)c(F)c(F)c(F)c1F)C(=O)N[C@@H](CCCNC(=N)N)C(=O)N[C@@H](CO)C(=O)N1CCC[C@H]1C(=O)N[C@@H](CO)C(=O)N[C@@H](Cc1ccc(O)cc1)C(=O)N[C@@H](Cc1ccc(O)cc1)C(=O)O [CBP413, (l-Tyr)(l-Gly)(l-Arg)(l-Lys)(l-Lys)(l-Arg)(l-Arg)(l-Gln)(l-Arg)(l-Arg)(l-Arg)(l-Cha)(l-Phe-2,3,4,5,6-F)(l-Arg)(l-Ser)(l-Pro)(l-Ser)(l-Tyr)(l-Tyr)]
- G2 abrogating dose (Jurkat cells [1]; with 40 μg/ml bleomycine, 24 hours): ≧1.56 μM

Compound: N=C(N)NCCC[C@@H](NC(=O)[C@@H](CCCNC(=N)N)NC(=O)[C@@H](CCC(N)=O)NC(=O)[C@@H](CCCNC(=N)N)NC(=O)[C@@H](CCCNC(=N)N)NC(=O)[C@@H](CCCNC(=N)N)NC(=O)[C@@H](CC1CCCCC1)NC(=O)[C@@H](Cc1c(F)c(F)c(F)c(F)c1F)NC(=O)[C@@H](CO)NC(=O)[C@@H](Cc1c[nH]c2ccccc12)NC(=O)[C@@H](CO)NC(=O)[C@H](N)Cc1ccc(C(=O)c2ccccc2)cc1)C(=O)O [CBP501, (d-Bpa)(d-Ser)(d-Trp)(d-Ser)(d-Phe-2,3,4,5,6-F)(d-Cha)(d-Arg)(d-Arg)(d-Arg)(d-Gln)(d-Arg)(d-Arg)] (H-[dBpa][dS][dW][dS][dPhe(F5)][dCha][dR][dR][dR][dQ][dR][dR]-OH; N-terminus and C-terminus assumed)
- Dose up to which HUVEC cells were not sensitized to cisplatin (HUVEC cells): > 50 µM
- Sensitization to DNA damaging agents (% sub-G1 cells) (MIAPaCa2): sensitized MIAPaCa2 cells to both bleomycin and adriamycin in a dose dependent manner
- Effect on M phase cell cycle arrest induced by colchicine (Jurkat cells [2]): does not affect M phase cell cycle arrest and/or non specific toxicity induced by colchicine
- Dose up to which non specific toxicity (M checkpoint abrogation) was absent (Jurkat cells [2]; 0.5 μg/ml colchicine): > 50 µM
- Effect on growth of normal cells (HUVEC): does not affect the growth of HUVEC cells
- Hazard Ratio OS (non-squamous NSCLC; ALL treated, exploring other covariates): 0.77
- Hazard Ratio OS (non-squamous NSCLC; ALL treated, without exploring other covariates): 0.96
- Hazard Ratio OS (non-squamous NSCLC; WBC <10000/μL at screening, exploring other covariates): 0.69
- Hazard Ratio OS (non-squamous NSCLC; WBC <10000/μL at screening, without exploring other covariates): 0.80
- Survival benefit from addition to pemetrexed plus cisplatin (non-squamous NSCLC; all treated population): no statistically significant survival benefit
- Survival benefit from addition to pemetrexed plus cisplatin (non-squamous NSCLC; sub-group with normal or low WBC at screening): provided a benefit
- Platinum concentration and platinum-DNA adduct formation [3]: increase platinum concentration and platinum-DNA adduct formation
- G2 checkpoint abrogating activity (Jurkat cells [1]): abrogated in a dose dependent manner
- Tumor growth, treatment alone ([4]; CBP501 10 or 40 mg/kg intra-peritoneally): suppresses the growth of human pancreatic cancer cell in vivo
- Tumor growth, combination with cisplatin ([4]; CDDP 3 mg/kg and CBP501 10 or 40 mg/kg intra-peritoneally): increased the anti-tumor activity of cisplatin
- Dose limiting allergic reactions (grade 3) ([5]; CBP501 36.4 mg/m^2 and cisplatin 75 mg/m^2): two out of six patients experienced allergic reactions
- MTD in patients ([5]; in combination with cisplatin 75 mg/m^2, once every 21 days): 24.3 mg/m^2
- Residual peptide after 1 hr serum treatment [6]: >90%
- Effect on cyto-toxic activity of platinum drugs, colony formation [7]: enhanced the cyto-toxic activity of both cisplatin and oxaliplatin
- Phagocytosis of macrophages in vitro (M1 and M2 macrophages): inhibited phagocytosis of both M1 and M2 macrophages

Compound: (d-Arg)(d-Arg)(d-Arg)(d-Arg)(d-Bpa)(d-Arg)(d-Trp)(d-Arg)(d-Phe-2,3,4,5,6-F)(d-Cha) ([dR][dR][dR][dR][dBpa][dR][dW][dR][dPhe(F5)][dCha]) [CBP702]
- G2 checkpoint abrogating activity (Jurkat cells [1]): retain G2 checkpoint abrogating activity comparable to other peptides having significant G2 checkpoint abrogating activity

Compound: (d-Arg)(d-Arg)(d-Bpa)(d-Arg)(d-Arg)(d-Arg)(d-Phe-2,3,4,5,6-F)(d-Cha) ([dR][dR][dBpa][dR][dR][dR][dPhe(F5)][dCha]) [CBP700]
- G2 checkpoint abrogating activity (Jurkat cells [1]): retain G2 checkpoint abrogating activity comparable to other peptides having significant G2 checkpoint abrogating activity

Compound: (d-Arg)(d-Arg)(d-Arg)(d-Bpa)(d-Arg)(d-Arg)(d-Arg)(d-Phe-2,3,4,5,6-F)(d-Cha) ([dR][dR][dR][dBpa][dR][dR][dR][dPhe(F5)][dCha]) [CBP703]
- G2 checkpoint abrogating activity (Jurkat cells [1]): retain G2 checkpoint abrogating activity comparable to other peptides having significant G2 checkpoint abrogating activity
